According to patent publication US8530619B2, “Identification of the hepcidin binding site on ferroportin” (University of Utah Research Foundation, priority 2007, dated 2013):
No end group written: not given here.

Assays:
E. coli = experiment: Binding of hepcidin to E. coli; details: low temperature hepcidin dimer; preliminary study
Description: The five amino terminal amino acids of hepcidin were previously shown to be critical for binding of hepcidin to Fpn (7). […] Hepcidin is amphipathic and it is hypothesized that the hydrophobic surface of hepcidin monomers are interacting at 4° C. to form a dimer. Hepcidin, like other defensins, interacts through its hydrophobic surface with bacterial membranes (11).

I-HBD = target: T1, I-HBD (Homo sapiens, UniProt Q9NP59); experiment: Competition with 125I-labeled hepcidin on HBD-coated 96-well plate; type: binding; details: 96-well plate, 0, 50, 100, 500 ng hepcidin, room temperature, 4 hours
T1 construct: made in house; host or cells: chemical synthesis
Description: In accordance with the invention, HBD can be used in an assay system to determine levels of hepcidin in a test sample. Accordingly, unlabeled HBD is immobilized on a solid substrate. HBD peptides were immobilized by covalently attaching them to a 96-well plate. Immobilization was performed using Reacti-Bind Amine-binding 96-well plates (Pierce), following the manufacturer's instructions. […] The plates were incubated at room temperature overnight. The peptide solution was then removed from the wells and a protein blocking buffer, such as dry milk in phosphate buffer saline, was added to each well and allowed to sit for two hours at 37° C. The plates were then washed with warm washing buffer to remove unbound material. HBD-coated plates were used in an assay to detect hepcidin as follows: […] The plate was incubated at room temperature for 4 hours. […] (FIG. 7)

[1] = target: T2, I-HBD (hepcidin binding domain of ferroportin) (Homo sapiens, UniProt Q9NP59); experiment: Competition with 125I-hepcidin for binding to I-HBD beads
T2 construct: made in house; host or cells: chemical synthesis
Description: FIGS. 2A-C illustrates that the binding of ^125I-hepcidin to HBD is specific and temperature dependent. In FIG. 2A peptides (HBD, scrambled-HBD or mutant (C326Y HBD) were conjugated to beads and ^125I-hepcidin was added to the bead-immobilized peptides (I-HBD) for 18 hours at 37° C. (black bars) or 4° C. (grey bars). The beads were washed and the amount of ^125I-hepcidin bound to the I-HBD was determined. In FIG. 2B a sub saturating concentration of ^125I-hepcidin (0.6 μg/ml) was incubated with I-HBD for 18 hours at 37° C. in the presence or absence of known concentrations of either hepcidin 25 (Hep 25-open circles) or hepcidin 25 synthesized with a tyrosine substitution at position M21 (Y-Hep 25) and the amount of radioactivity bound to the I-HBD determined. In FIG. 2C sub saturating levels of ^125I-hepcidin were incubated with I-HBD at different temperatures.
The binding of ^125I-hepcidin could be reduced by addition of native non-radioactive hepcidin with an apparent K of approximately 200 nM (FIG. 2B). There was no binding of ^125I-hepcidin to I-HBD at 4° C. and ^125I-hepcidin bound to I-HBD at 37° C. was released when subsequently placed at 4° C. (data not shown).
HBD peptides were immobilized by covalently attaching them to agarose beads. […] The fluid was removed and the radioactivity bound to beads was determined by gamma counting (Perkin/Elmer).

[2] = Solubility of the peptide; type: physicochemical; details: two arginines added at amino and carboxyl terminals
Description: Peptides were synthesized at the DNA/Peptide Core Facility, University of Utah, Salt Lake City, Utah. The peptides were synthesized with two arginines added at the amino and carboxyl terminals. […] Microscope analysis was carried out using an Olympus BX51 microscope (Olympus, Tokyo, Japan). Images were acquired using Picture Frame 2.5 software (Olympus America, East Muskogee, Okla.). All experiments were repeated a minimum of 5 times.

CC[C@H](C)[C@@H]1NC(=O)[C@@H](NC(=O)[C@@H](NC(=O)[C@@H]2CCCN2C(=O)[C@H](Cc2ccccc2)NC(=O)[C@H](Cc2c[nH]cn2)NC(=O)[C@@H](NC(=O)[C@@H](N)CC(=O)O)[C@@H](C)O)[C@@H](C)CC)CSSC[C@@H](C(=O)N[C@@H](CCCCN)C(=O)N[C@H](C(=O)O)[C@@H](C)O)NC(=O)[C@@H]2CSSC[C@@H]3NC(=O)[C@@H]4CSSC[C@H](NC(=O)[C@H](Cc5ccccc5)NC1=O)C(=O)N[C@@H](CSSC[C@H](NC(=O)[C@H](CCCCN)NC(=O)[C@H](CO)NC(=O)[C@H](CCCNC(=N)N)NC(=O)[C@H](Cc1c[nH]cn1)NC3=O)C(=O)NCC(=O)N[C@@H](CCSC)C(=O)N2)C(=O)NCC(=O)N4 [hepcidin]
binding to E. coli (E. coli): cannot bind to E. coli
competition with 125I-labeled hepcidin for binding to I-HBD (I-HBD): able to compete for binding to I-HBD
binding to HBD / I-HBD [1]: does bind

RRFDCITTGYAYTQGLSGSILSRR [HBD wt]
solubility of the peptide [2]: increased the solubility
